In patent publication US20090306093A1, “METHOD FOR TREATING PATIENT HAVING BENIGN PROSTATE HYPERPLASIA” (KAOHSIUNG MEDICAL UNIVERSITY, priority 2008, published 2009):

Experiments:
[1] = target: T1, a1B-adrenoceptor (Rattus norvegicus, UniProt P15823); assay: [3H]-prazosin competition binding, rat spleen membranes; conditions: read-out: Receptor Affinity (pKi) a1B (converted)
T1 construct: The submaxillary glands, spleen, and aorta of rats were separately homogenized; from tissue; host or cells: Wistar rat spleen membranes
T1 sequence (P15823 1-515): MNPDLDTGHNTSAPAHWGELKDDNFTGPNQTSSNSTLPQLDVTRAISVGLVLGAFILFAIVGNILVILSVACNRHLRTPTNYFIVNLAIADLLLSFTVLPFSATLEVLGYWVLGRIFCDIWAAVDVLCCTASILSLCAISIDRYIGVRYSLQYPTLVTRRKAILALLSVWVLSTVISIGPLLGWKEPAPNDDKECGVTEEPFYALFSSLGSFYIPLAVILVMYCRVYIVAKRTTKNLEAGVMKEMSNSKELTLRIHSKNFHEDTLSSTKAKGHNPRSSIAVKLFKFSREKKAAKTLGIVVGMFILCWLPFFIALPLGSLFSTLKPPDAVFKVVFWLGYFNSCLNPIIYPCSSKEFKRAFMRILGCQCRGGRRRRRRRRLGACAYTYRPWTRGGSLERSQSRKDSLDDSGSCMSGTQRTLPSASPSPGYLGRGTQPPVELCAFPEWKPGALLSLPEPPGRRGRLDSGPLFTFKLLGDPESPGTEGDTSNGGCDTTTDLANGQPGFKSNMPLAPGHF
Protocol: Wistar rats were obtained from National Laboratory Animal Breeding and Research Center (Taipei, Taiwan) and housed under a constant temperature and controlled illumination. The submaxillary glands, spleen, and aorta of rats were separately homogenized for 30 seconds with a Kinematica polytron in 20 volumes of ice-cold TE buffer (10 mM Tris HCl, 1 mM EDTA, 0.1 mM ascorbic acid, pH 7.4). The homogenate was filtered under pressure through muslin and the filtrate was centrifuged at 1,000 g for 10 minutes. The supernatant was centrifuged again at 10,000 g for 12 minutes at 4° C. The second supernatant was centrifuged at 30,000 g for 15 minutes at 4° C., and the final pellet was resuspended in the assay buffer (75 mM Tris HCl, 25 mM MgCl2, pH 7.4). Protein content was determined by Bradford's method.
[^3H]-prazosin, KMUP-1 and membranes (200-300 μg) were incubated for 60 minutes at 25° C. with or without the addition of nonspecific binding agents, in a 75 mM Tris HCl buffer with 25 mM MgCl2, making a final volume of 500 μL. In this experiment, non-specific binding was defined by use of 10 μM phentolamine. […] Membrane-bound radioligand trapped in the filters was counted in a Beckman LS6500 scintillation system (Fullerton, Calif.) with an efficiency of 45%. In each experiment, nonspecifically bound radioligand agents were measured by incubating membrane protein. […]

[2] = test system: cAMP; assay: Determination of cAMP in rat isolated prostate (radioimmunoassay); conditions: for cAMP levels: 1 hour
Protocol: Isolated prostate strips from Wistar rats were prepared to determine prostate levels of cGMP and cAMP. Briefly, prostate strips were respectively incubated with KMUP-1 (10-100 μM), sildenafil (100 μM), and zaprinast (100 μM) in 10 mL Tyrode solution aerated with 95% O2 and 5% CO2 for 1 hour. To examine the possible mechanisms of action of KMUP-1, the rat prostate was pretreated with ODQ (10 μM, sGC inhibitor) and SQ22536 (9-(tetrahydro-2-furanyl)-9H-purin-6-amine, 10 μM, adenylyl cyclase inhibitor) for 30 minutes before KMUP-1 was added. After the incubation, the prostate tissues were extracted with 1 mL of 0.1 N HCl. The extracts were then lyophilized for a further measurement of cyclic GMP or cyclic AMP of each sample, using commercially available radioimmunoassay kits (Amersham Pharmacia Biotech, Buckinghamshire, England).

[3] = test system: PKA; assay: Western blot of PKA expression in rat prostate
Protocol: Prostate strips were incubated with KMUP-1 (10-100 μM), sildenafil (100 μM) and zaprinast (100 μM) in 10 mL Tyrode solution aerated with 95% O2 and 5% CO2 for 1 hour. To examine the possible mechanisms of KMUP-1 action, the rat prostate were pretreated with ODQ (10 μM), SQ22536 (10 μM) and RP-8pCPT-cGMPs (10 μM) for 30 minutes prior to the addition of KMUP-1 (100 μM).
In order to examine the expression of Rho kinase in prostate, the prostate strips were pre-incubated with phenylephrine (10 μM) for 30 minutes. After a pre-treatment of phenylephrine, KMUP-1 (10-100 μM) and Y-27632 (10 μM) were further incubated for 30 minutes. After the incubation time, the prostate were extracted with protein extraction reagent (Pierce Biotechnology, Inc., Rockford, Ill., USA.). The PZ-HPV-7 cells were incubated with and without KMUP-1 (0.1-10 μM) at 30 minutes, 8 and 24 hours. They were then washed rapidly with ice-cold PBS, incubated with protein extraction reagent, and scraped from the plates. The prostate tissues and cells were sonicated three times for 10 second each time and centrifuged at 13,000 rpm at 4° C. for 30 minutes. The protein concentrations of supernatants were determined, using bovine serum albumin as the standard. […] The intensity of the bands was measured by densitometry.

## Cn1c(=O)c2c(ncn2CCN2CCN(c3ccccc3Cl)CC2)n(C)c1=O [KMUP-1, 7-[2-[4-(2-Chlorobenzene)piperazinyl]ethyl]-1,3-dimethyl xanthine]
[1]
  Ki: 115 nM
[2]; 10 μM
  cAMP levels: 1.74±0.51 pmol mg^−1 protein
[2]; 100 μM
  cAMP levels: 2.82±0.42 pmol mg^−1 protein
[2]; KMUP-1 100 μM in the presence of SQ22536 10 μM
  accumulation of cAMP: 2.16±0.79 pmol mg^−1 protein
[3]; 100 μM
  expression of PKA: significantly induces
[3]; KMUP-1 100 μM with SQ22536 10 μM
  expression of PKA: reversed
